From US9249137B2, “Dicarboximide derivatives of berbamine, the preparation and use thereof” (HANGZHOU BENSHENG PHARMACEUTICAL CO., LTD., priority 2010, dated 2016)
Where two headings read alike, the source gives them in different places.

What was measured:
[1] = test system: human K562 leukemia cell line (chronic myeloid leukemia, CML); assay: MTT growth inhibition of leukemia cells, 72 hours; type: cell-based; conditions: compared with berbamine itself
Text: (§1) Leukemia cell lines: human K562 leukemia cell line (chronic myeloid leukemia, CML), K562/adr (drug-resistant chronic myeloid leukemia (CML), NB4 (acute promyelocytic leukemia, AML), Kasumi-1 (acute myeloid leukemia M2 type, AML-M2), Jurkat (acute lymphoblastic leukemia, ALL), H9 (acute lymphoblastic leukemia, ALL).
(§2) Obtaining 6000 well-growing leukemia cells and inoculating them into wells of a 96-well cell culture plate. The culture medium is the 1640 cell culture medium containing 10% fetal bovine serum. After adding of the berbamine derivatives of different concentrations and mixing uniformly, the plate is placed in a carbon dioxide cell incubator (5% CO2) at 37° C. and incubated for 72 hours. Then the viable cell concentration is determined by the MTT method.

[2] = test system: K562/adr (drug-resistant chronic myeloid leukemia); assay: MTT growth inhibition of leukemia cells, 72 hours; type: cell-based, human; conditions: compared with berbamine itself
Text: as §1, §2

[3] = test system: RPMI8226 (multiple myeloma); assay: MTT growth inhibition of multiple myeloma cells, 72 hours; type: cell-based, human; conditions: compared with berbamine itself
Procedure: Multiple myeloma and lymphoma cell lines: U266 (multiple myeloma), RPMI8226 (multiple myeloma), and DOHH2 (lymphoma).
as §2, with “aforesaid tumor” for “leukemia”, “adding” for “adding of”

MCF-7 (breast cancer) = assay: MTT growth inhibition of human solid tumor cells, 72 hours; type: cell-based; conditions: compared with berbamine itself
Text: (§3) Human solid tumor cell lines: HepG2 (human hepatocellular carcinoma, HCC), A549 (human lung cancer), MCF-7 (breast cancer), PANC-1 (pancreatic cancer), PC-3 (prostate cancer), MG63 (osteosarcomas), AGS (gastric cancer), Huh7 (human hepatoma cell), Becap37 (human breast cancer cell), Hela (human cervical cancer cell), RKO (human colon adenocarcinoma cell), SW620 (human colon adenocarcinoma cells), SW480 (human colon cancer cell), MGC 803 (human gastric cancer cell).
as §2, with “4000” for “6000”, “human solid tumor” for “leukemia”, “DMEM High Glucose” for “the 1640”, “adding” for “adding of”, “method, and the cell viability (%) after drug treatment is calculated. In this experiment, the cell viability of control group (not treated with any compound) is set as 100%.” for “method.”

[4] = test system: HepG2 (human hepatocellular carcinoma, HCC); assay: as above; type: cell-based; conditions: compared with berbamine itself
Text: as §3
as §2, with “4000” for “6000”, “human solid tumor” for “leukemia”, “DMEM High Glucose” for “the 1640”, “adding” for “adding of”, “method, and the cell viability (%) after drug treatment is calculated. In this experiment, the cell viability of control group (not treated with any compound) is set as 100%.” for “method.”

[5] = test system: PANC-1 (pancreatic cancer); assay: as above; type: cell-based; conditions: compared with berbamine itself
Text: as §3
as §2, with “4000” for “6000”, “human solid tumor” for “leukemia”, “DMEM High Glucose” for “the 1640”, “adding” for “adding of”, “method, and the cell viability (%) after drug treatment is calculated. In this experiment, the cell viability of control group (not treated with any compound) is set as 100%.” for “method.”

[6] = test system: MGC 803 (human gastric cancer cell); assay: as above; type: cell-based; conditions: compared with berbamine itself
Text: as §3
as §2, with “4000” for “6000”, “human solid tumor” for “leukemia”, “DMEM High Glucose” for “the 1640”, “adding” for “adding of”, “method, and the cell viability (%) after drug treatment is calculated. In this experiment, the cell viability of control group (not treated with any compound) is set as 100%.” for “method.”

MG63 (osteosarcomas) = assay: as above; type: cell-based; conditions: compared with berbamine itself
Text: as §3
as §2, with “4000” for “6000”, “human solid tumor” for “leukemia”, “DMEM High Glucose” for “the 1640”, “adding” for “adding of”, “method, and the cell viability (%) after drug treatment is calculated. In this experiment, the cell viability of control group (not treated with any compound) is set as 100%.” for “method.”

[7] = test system: Becap37 (human breast cancer cell); assay: as above; type: cell-based; conditions: compared with berbamine itself
Text: as §3
as §2, with “4000” for “6000”, “human solid tumor” for “leukemia”, “DMEM High Glucose” for “the 1640”, “adding” for “adding of”, “method, and the cell viability (%) after drug treatment is calculated. In this experiment, the cell viability of control group (not treated with any compound) is set as 100%.” for “method.”

[8] = test system: normal human peripheral blood leucocytes; conditions: concentration range 0.5 ug/mL to 10 ug/mL; cited from earlier work
[9] = test system: human leukemia Jurkat cells; conditions: cited from earlier work
[10] = test system: red cell membrane CaM-independent Ca^2++Mg^2+ ATPase; conditions: relative to berbamine; cited from earlier work
CaM = CaM (Homo sapiens, UniProt P0DP23); conditions: relative to berbamine; cited from earlier work

COc1cc2c3cc1Oc1c(OC)c(OC)cc4c1[C@@H](Cc1ccc(OCCCCCCCN5C(=O)c6ccccc6C5=O)c(c1)Oc1ccc(cc1)C[C@@H]3N(C)CC2)N(C)CC4 [BS-BE-003, 12-O-(7-(1,3-dioxo-isoindolin-2-yl)-heptyl)-berbamine]
improvement of anti-human K562 chronic myelogenous leukemia activity [1]: more than 5 fold
improvement of anti-K562/adr (drug-resistant chronic myelogenous leukemia) activity [2]: more than 6 fold
improvement of anti-RPMI8226 (multiple myeloma) cell activity [3]: ~6 fold
improvement of anti-MCF-7 (breast cancer) activity (MCF-7 (breast cancer)): ~6 fold
improvement of anti-HepG2 (human hepatocellular carcinoma, HCC) activity [4]: ~5 fold
improvement of anti-PANC-1 (pancreatic cancer) activity [5]: more than 6 fold
improvement of anti-MGC 803 (human gastric cancer cells) activity [6]: ~7 fold
improvement of anti-MG63 (osteosarcomas) activity (MG63 (osteosarcomas)): ~8 fold
improvement of anti-Becap37 (human breast cancer cell) activity [7]: ~5 fold

COc1cc2c3cc1Oc1c(OC)c(OC)cc4c1[C@@H](Cc1ccc(O)c(c1)Oc1ccc(cc1)C[C@@H]3N(C)CC2)N(C)CC4 [BBM, 6,6′,7-trimethoxy-2,2′-dimethylberbaman-12-ol]
cytotoxicity on normal human peripheral blood leucocytes [8]: no obvious cytotoxicity
cell viability rate ([9]; drug concentration 0.5 ug/mL): 93.69%
cell viability rate ([9]; drug concentration 10 ug/mL): 14.85%

O-Dansyl berbamine [DB]
inhibitory activity on red cell membrane CaM-independent Ca^2++Mg^2+ ATPase, stronger than that of berbamine [10]: 25 fold

CCOCCCCOc1ccc2cc1Oc1ccc(cc1)C[C@H]1c3cc(c(OC)cc3CCN1C)Oc1c(OC)c(OC)cc3c1[C@@H](C2)N(C)CC3 [EBB, [O-(4-ethoxy)-butyl]-berbamine]
specific coefficient as CaM antagonist, higher than that of berbamine (CaM): 6.5 fold
